Reference: patent US7052910B2, “Skeletal cell model to screen anti-diabetic compounds” (Council of Scientific and Industrial Research, priority 2001, dated 2006)

How the values were obtained:
[1] = test system: IRS-1; experiment: Tyrosine phosphorylation and expression of IRS-1 in C2C12 myotubes differentiated in serum free medium without (MF) or with chronic insulin (MFI); immunoblot; format: cell-based, mouse
Method: (§1) FIG. 5 represents the effect of insulin stimulation on control and chronically insulin-differentiated cells: Cells were stimulated with 100 nm of insulin for 5 min. Cell lysates were run on sodium dodecyl sulphate-7%-polyacrylamide gel electrophoresis (SDS-7%-PAGE) and were immunoblotted with antiphosphotyrosine antibody (A) or anti-IRS-1 antibody (C) or anti-IR-β antibody (E). Cell lysates were immunoprecipitated with antibodies to IRS-1 (B) or IR-β (D) and immunoblotted (IB) with antiphosphotyrosine antibody; and FIG. 6 represents the effect of pioglitazone on tyrosine phosphorylation of IRS-1 and IR-β: Pioglitazone was added at 50 μM concentration during the last day of differentiation for 24 hr. Then, the cells were stimulated with 100 nm of insulin for 5 min. Cell lysate were immunoblotted (IB) with antiphosphotyrosine antibody (A) or α-IRS-1 (B). Cell lysates of the samples prepared the same immunoprecipitated (IP) with antibodies and immunoblotted (IB) with antiphosphotyrosine (C) or anti-IR-β (D) antibodies. C2C12 cells were grown in DMEM (Dulbecco's Modified Eagle Medium) containing 15% FCS (fetal calf serum). The cells were differentiated in serum free medium in the absence or chronic presence of 100 nm insulin. After three days the differentiation was complete. […]

[2] = test system: IR-β; experiment: Tyrosine phosphorylation and expression of IR-β in C2C12 myotubes differentiated in serum free medium without (MF) or with chronic insulin (MFI); immunoprecipitation and immunoblot; format: cell-based, mouse
Method: as §1

Substance: insulin
- ability of IRS-1 to undergo tyrosine phosphorylation in response to insulin ([1]; C2C12 cells differentiated in chronic presence of 100 nm insulin (MFI), FIG. 5B): impaired
- tyrosine phosphorylation of IRS-1 (Mr 160–170 kDa protein) ([1]; control (MF) C2C12 myotubes stimulated with 100 nm insulin for 5 min, FIG. 5A): insulin stimulated tyrosine phosphorylation
- expression of IR-β ([2]; C2C12 cells differentiated in chronic presence of 100 nm insulin, FIG. 5E): reduced
- tyrosine phosphorylation levels of IR ([2]; MFI (chronic 100 nm insulin) versus MF differentiated C2C12 cells, FIG. 5D): Severe reduction
